We go through four molecules from ChEMBL document CHEMBL3272225, “Potential carcinostatics. Synthesis and biological properties of d- and 1-beta,beta-difluoroaspartic acid and beta,beta-difluoroasparagine” (J Med Chem, 1977).

SMILES strings stand for the structures. Active and inactive are the calls of the source. The rule behind the calls is not given here.

Assay [1] is described as follows: Growth inhibition of mouse 3T3-F cells at 10 ug/ml assessed as cell growth after 24 hrs by Coulter counting method. The class given is functional.
Assay [2] in a line: Growth inhibition of mouse 3T3-F cells assessed as cell growth at 100 ug/ml after 24 hrs by Coulter counting method. The class given is functional.
The species named for a further assay is Mus musculus. Nature of the assay: Growth inhibition of mouse 3T3-F cells assessed as cell growth after 24 hrs by Coulter counting method. The class given is functional.
In the next assay the test system is L5178Y. In words: Antitumor activity against mouse L5178Y cells allografted in CDF-1 mouse assessed as cytostatic activity administered on day 1 to day 9 post challenge. The assay is classed as functional.
The nature of assay [3]: Competitive inhibition of aspartate aminotransferase in rat liver homogenate by Lineweaver-Burk plot method. The assay is classed as tissue-based.

`N[C@@H](C(=O)O)C(F)(F)C(=O)O`: the Cell growth at 10 µg/mL in assay [1] is 75%. The Cell growth at 100 µg/mL in assay [2] was 12%.
With `N[C@H](C(=O)O)C(F)(F)C(=O)O`, the result in the assay listed under Mus musculus was inactive.
As to `NC(=O)C(F)(F)C(N)C(=O)O` (racemic), in the assay on L5178Y, the result was inactive.
For the molecule `NC(C(=O)O)C(F)(F)C(=O)O` (racemic), the outcome in the assay on L5178Y was inactive. Affinity in assay [3] was put at a Ki of 1000 µM.
